Legend:
5HT5A = molecular target: T1, 5HT5A (Homo sapiens, UniProt P47898); assay: GPCRmax screen, agonist mode; assay type: cell-based
T1 construct: beta-galactosidase enzyme fragment (PathHunter complementation tag); host or cells: PathHunter cell lines

healthy adult subjects = assay: Methylone case series, Cohort 1: safety and tolerability of a single dosing session; assay type: in vivo, human; conditions: Cohort 1, 4 healthy subjects, total oral dose 790 or 870 mg in one session

T1 sequence (P47898 whole entry, the tested form may be a part): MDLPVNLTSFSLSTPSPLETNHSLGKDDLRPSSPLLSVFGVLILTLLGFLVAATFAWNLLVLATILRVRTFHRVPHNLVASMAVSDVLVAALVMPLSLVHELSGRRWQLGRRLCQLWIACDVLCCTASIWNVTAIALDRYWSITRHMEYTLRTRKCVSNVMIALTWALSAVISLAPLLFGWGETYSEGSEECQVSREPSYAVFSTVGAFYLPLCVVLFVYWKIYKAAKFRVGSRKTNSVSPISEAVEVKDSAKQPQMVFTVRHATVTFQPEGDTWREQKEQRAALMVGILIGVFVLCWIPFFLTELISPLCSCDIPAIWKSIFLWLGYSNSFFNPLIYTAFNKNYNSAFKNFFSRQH

CNC(C)C(=O)c1ccc2c(c1)OCO2 (stereo not shown) [methylone, 3,4-methylenedioxy-N-methylcathinone]
agonist % activity, greatest activity detected (5HT5A; 1 or 10 mM, threshold 30%): 13.9%
activity at 10 µM (5HT5A; HTR5A, Agonist mode, 10 uM): 13.9%
activity at 1 µM (5HT5A; HTR5A, Agonist, 1 uM): 13.6%
adverse effects or after-effects (healthy adult subjects): no adverse effects or after-effects were observed or reported
